Results as given in patent publication US20050037975A1, “Method for treatment of glutamate related disorders” (priority 1997, published 2005).

Columns and labels:
[1] = Plasma acetaldehyde determination after ethanol challenge; assay type: in vivo, rat; conditions: 10.3 mg/kg IP in polyethylene glycol 200, ethanol challenge 1 g/kg IP
Procedure: Rats maintained as described in Ex. 4, fasted for 18 hours, were given 10.3 mg/kg of the DETC-Me SO intraperitoneally, dissolved in polyethylene glycol 200 and then challenged eight hours later with a dose of ethanol (1 g/kg; 20% v/v) also administered intraperitoneally. The rats were anesthetized with phenobarbital 30 minutes after alcohol administration and blood was taken by aortic puncture, being drawn into a heparinized syringe. Plasma acetaldehyde was determined by the method of C. O. P. Eriksson et al., Anal. Biochem., 80, 116 (1977). Plasma concentrations were determined based on a standard curve obtained with known concentrations of acetaldehyde. Control rats were treated with 1 ml/kg of polyethylene glycol 200.

[2] = test system: succinic semi-aldehyde dehydrogenase (SSA DH); experiment: In vitro inactivation of succinic semi-aldehyde dehydrogenase; assay type: biochemical
Procedure: To test whether the protective effect of DETC-MeSO in hyperbaric O2-induced convulsions in mice could be due to inhibition of succinic semi-aldehyde dehydrogenase (SSA DH), mechanistically related to ALDH2, the sensitivity of SSA DH to inactivation by DETC-MeSO was determined. Potentially, inhibition of SSA DH in brain could offset the build up of ammonia known to occur and produce more GABA. In vitro both ALDH2 and SSA DH are inactivated by DETC-MeSO at 47 M-1 s-1 and 300 M-1 s-1, respectively.

[3] = Carbamoylation of glutathione by DETC-MeSO under physiological conditions
Excerpt: This rate of reaction was approximate an order of magnitude faster than that of the more familiar α-haloketone functionality.

[4] = test system: brain glutamate receptors (synaptic membranes); experiment: Glutamate binding to synaptic membranes isolated from treated mice; assay type: in vivo, mouse
Procedure: Binding Studies—Synaptic membranes (100 μg protein) were isolated (Y. H. Lee et al., J. Neurosci. Res. 40, 797-806 (1995)) form whole brain homogenate of male Swiss Webster mice and were incubated in 0.1 mM L-glutamate for 30 minutes at 25° C. After addition of 50 nM of [^3H]glutamate, incubation was continued for an additional 45 minutes. Reactions were terminated by centrifugation at 4° C. to separate membrane-bound from free radioactivity. Nonspecific binding (radioactivity bound in the presence of 0.5 mM unlabeled glutamate) averages: 20-30% of total radioactivity bound. The rate (k) and maximum percent blockage of glutamate binding (M) by DETC-MeSO (1) during the incubation time (t) was determined by fitting the equation [% inhibition]=M(1−e^−kh) to these day by use of the program Grafit (Erithicus Software Ltd.). This equation was derived for first-order inactivation by a group specific reagent that gives a partial effect. If “A” is the percent of binding activity that remains after extensive exposure (t=of the receptor to excess DETC-MeSO, then M=100−A)e^−kh+A; substituting (100−M) for “A” and [100−% inhibition] for “a” in this equation gives the one employed for purposes of data analyses. […] A second equation was employed in the analysis of binding data that defines partial, irreversible inactivation of two distinct groups of receptors [% inhibition]=M1(1−e^−k1^IT)+M2(1−e^−k1^IT), where M1 and M2 are the maximum amount of inhibition obtained for complete modification of each receptor population and k1 and k2 are the rate constants for these modifications, respectively.
Synaptic membranes were prepared from the brains of mice injected with DETC-MeSO (5.2 mg/kg, i.p.). The ability of synaptic membrane preparations isolated from DETC-MeSO-treated mice to bind glutamate was compared with similar preparations isolated from control animals. FIG. 3(A) illustrates the results obtained from synaptic membranes prepared from brains of mice killed two hours after a single dose of DETC-MeSO, or two hours after the last injection of multiple consecutive doses (5.2 mg/kg, i.p., daily for seven days). Either single or multiple dosing with DETC-MeSO reduced the capacity of synaptic membranes to bind glutamate by approximately 50%, the maximum effect obtained in vitro (FIG. 3). Each bar represents the average of results obtained from four animals and the error bars are for one standard deviation.

inactivation rate of SSA DH [2]: 300 M⁻¹ s⁻¹
conversion to DETC-GS ([3]; GSH 1-6 mM, within 5 minutes): > 95%
DETC-MeSO remaining ([3]; blood, GSH 1 mM, after 5 minutes): less than 5%
DETC-MeSO remaining ([3]; liver, after one minute): less than 3%
Structure (SMILES): CCN(CC)C(=O)[S+](C)[O-] (stereo not drawn) [DETC-MeSO, S-Methyl-N,N-Diethylthiolcarbamate Sulfoxide]
plasma acetaldehyde [1]: approximately 900 μM
rate of carbamoylation of the sulfhydryl group of glutathione (GSH) ([3]; 37° C., pH 7): 10 M⁻¹ s⁻¹
irreversible brain glutamate receptor blockage ([4]; 30 μmol/kg intravenous, mice): 38.2±1.6%
reduction of capacity of synaptic membranes to bind glutamate ([4]; 5.2 mg/kg i.p. daily for seven days, killed two hours after last injection): approximately 50%
inhibition of glutamate binding ([4]; single dose 5.2 mg/kg i.p., killed 24 hours after): less inhibition
reduction of capacity of synaptic membranes to bind glutamate ([4]; single dose 5.2 mg/kg i.p., killed two hours after): approximately 50%
